Test results from patent publication US20250295609A1, “COMPOUND HAVING ANTI-ANDROGEN RECEPTOR ACTIVITY, AND USE THEREOF” (NANJING MINOVA PHARMACEUTICAL CO., LTD., priority 2022, published 2025).

System: alopecia mouse model
Assay: Hair growth promotion test in mice with alopecia (testosterone propionate model)
Assay type: in vivo, C57BL/6 mice
Procedure: The compounds of the present disclosure were tested for their hair growth-promoting effects on an alopecia mouse model.
C57BL/6 mice (purchased from SPF (Beijing) Biotechnology Co., Ltd., production license No.: SCXK (Beijing) 2019-0010), test compounds (prepared by the method of the present disclosure), rosin (Shanghai YuanYe Bio-Technology Co., Ltd., lot No. Y18M10C83144), liquid paraffin (Shanghai YuanYe Bio-Technology Co., Ltd., lot No.: Z22S11Y125555), chloral hydrate (Sinopharm Chemical Reagent Co., Ltd., lot No.: 20190823, a 2% chloral hydrate solution was prepared by using a 0.9% sodium chloride solution before use), testosterone propionate (Aladdin Reagent (Shanghai) Co., Ltd., lot No.: T101368, a 0.5% testosterone propionate solution was prepared by using an a soybean oil for injection before use), soybean oil for injection (Liaoning Shinsun Pharmaceutical Co., Ltd., lot No.: NMPA Approval No. H21024303), paraformaldehyde (Xilong Scientific Co., Ltd., lot No.: 1705022), a 0.9% sodium chloride solution (Jiangsu Huai'an Shuanghe Pharmaceutical Co., Ltd., lot No.: 210322-3C), an electronic balance (Beijing Sartorius Scientific Instruments Co., Ltd., model: BS224 S; GZX-9140MBE), and a digital display electric heating constant temperature air blast drying oven (Shanghai Boxun Medical Biological Instrument Corp.).
8-week-old male C57BL/6 mice were selected and injected with 2% chloral hydrate (400 mg/kg) for anesthesia. Equal amounts of rosin and paraffin were weighed out, heated, and mixed well. The mixture was applied on the front back of the mice in an area of about 2 cm×2.5 cm. After the mixture was cooled to be hard, the solidified hair was torn off by tweezers gently.
Qualified C57BL/6 mice (3 mice per group) were randomly assigned to a blank group, a model group, a positive control drug group (7.5% clascoterone group), and test groups (including 0.3% compound 8 group and 0.3% compound 7 group). Mice in the blank group were coated with 0.1 mL of normal saline in the depilated area every morning (1 time a day for 17 consecutive days); mice in the model group were coated with 0.1 mL of 0.5% testosterone propionate solution in the depilated area every morning (1 time a day, starting on the first day, for 17 consecutive days), and with 0.5 mL of the control solvent in the depilated area every afternoon (1 time a day, starting on the second day, for 16 consecutive days); mice in the positive control drug group were coated with 0.1 mL of 0.5% testosterone propionate solution in the depilated area every morning (1 time a day, starting on the first day, for 17 consecutive days), and with 0.5 mL of 7.5% clascoterone solution in the depilated area every afternoon (1 time a day, starting on the second day, for 16 consecutive days); and mice in the test groups were coated with 0.1 mL of 0.5% testosterone propionate solution in the depilated area every morning (1 time a day, starting on the first day, for 17 consecutive days), and with 0.5 mL of 0.3% test compound solution in the depilated area every afternoon (1 time a day, starting on the second day, for 16 consecutive days). The formula of the test compound solution was 0.3% test compound, 40% DMSO, 30% ethanol, and the balance of water; the formula of the control solvent was 40% DMSO, 30% ethanol, and the balance of water; the formula of the positive control drug group was 7.5% clascoterone, 40% DMSO, 30% ethanol, and the balance of water. The hair regrowth in the depilated area of the mice in each group was observed and photographed 16 days after the start of topical administration of the test compound solution.
On day 18 of the test, 5 new hairs were pulled out from the back depilated area of each mouse in each group, the lengths of the hairs were measured using a vernier caliper, and the lengths of the hairs of the mice in each group were counted. The skin of the depilated area of the mice in each group was cut out, and hematoxylin-eosin staining (HE staining) was performed. […]

Q: For `CCC(=O)O[C@]1(C(=O)CO)CC[C@H]2[C@@H]3CCC4=CC(=O)CC[C@]4(C)[C@H]3CC[C@@]21C` [clascoterone, reference compound], which “hair growth and number of hair follicles compared to the model group (in words)” value (alopecia mouse model, FIG. 3) is on record?
A: significantly grown hairs and the number of hair follicles was significantly increased

Q: What about the “Number of hair follicles (X ± SD)” value (day 18, per field (×100), HE staining, topical once daily for 16 days) of the same compound?
A: 53.533 ± 24.929

Q: And the “Hair length (X ± SD)” value (day 18, topical once daily for 16 days, testosterone propionate alopecia mice)?
A: 5.649 ± 0.059 mm
